Measured values from EPA's ToxValDB 9.5 (doi:10.2903/j.efsa.2018.5429).
Converted amounts (≈) assume the structure as drawn.

What was measured:
Aphidius rhopalosiphi = assay: LR50; higher = less toxic; details: not reported; mortality
Daphnia magna = details: chronic/long-term; duration: 21 days; reproduction
Lepomis macrochirus = details: acute; duration: 96 hours; mortality
Oncorhynchus mykiss = details: chronic/long-term; duration: 56 days; behavior
Hypoaspis aculeifer = details: acute; duration: 14 days
Tagia sp. = details: chronic/long-term; duration: 56 days; body weight
Anas platyrhynchos = details: reproductive
Coturnix japonica = details: acute; oral; mortality
Rattus norvegicus = details: for NOAEL: reproduction developmental
Apis mellifera = details: acute, duration: 48 hours, mortality
Canidae = details: subchronic; duration: 90 days; oral; Dog Other; clinical signs

CNC(=O)Oc1cc(C)c(SC)c(C)c1 [Methiocarb]
LR50 (Aphidius rhopalosiphi): 8.5 g/ha | NOEC (Daphnia magna): 0.0001 mg/L | LC50 (Lepomis macrochirus): 0.65 µg/mL (≈ 2.88 µM) | NOEC (Oncorhynchus mykiss): 0.05 mg/L | NOEC (Hypoaspis aculeifer): 10.1 mg/kg | NOEC (Tagia sp.): 0.08 mg/kg | NOAEL (Anas platyrhynchos): 4.51 mg/kg-day | LD50 (Coturnix japonica): 5 mg/kg-day | LD50 (Rattus norvegicus; acute, oral, mortality): < 50 mg/kg-day | NOAEL (Rattus norvegicus; body weight): 4.3 mg/kg-day | NOAEL (Rattus norvegicus; clinical signs): 0.5 mg/kg-day | LD50 (Apis mellifera; dermal): 0.23 µg/piece | LD50 (Apis mellifera; oral, unspecified): 0.08 µg/piece | NOAEL (Canidae): 0.25 mg/kg-day
